Measured values: publication PMC1764434 (PLoS Clinical Trials, 2007)
Values joined by “and” are separate entries in the source; they are usually repeats but may differ in a detail not shown here. Equal entries are not always repeated. “Also recorded” adds a separate entry of the source. Where two headings read alike, the source gives them in different places.

Experiments:
[1] = Urinary excretion and renal clearance (24-hour urine collections, days 1-3)
[2] = Blood pharmacokinetics after oral dosing (fluorescence HPLC, noncompartmental WinNonlin model); format: in vivo, human; conditions: for Cmax / Vd/F / MRT / Tmax / half-life / AUC: human
Procedure: Study drugs were administered in the GCRC on an empty stomach between 8 and 9 AM the morning after admission (after fasting for ≥ 10 h).

[3] = system: healthy volunteers; experiment: Post-dose clinical and laboratory follow-up (hematology, chemistry, organ toxicity); format: in vivo, human
[4] = system: QT interval; experiment: Effects on the QT interval (ECG and Holter recordings, Bazett correction); conditions: for QTc interval, Baseline: before dosing
Procedure: The effects of the study drugs on the QT interval were assessed by comparing QT intervals before dosing with QT intervals 4 h after dosing, and at the 2 wk follow-up. […] QT intervals were measured manually and electronically (Rozinn Electronics, Glendale, New York, United States). […] Correction of the QT interval for heart rate (i.e., QTc) was performed using Bazett's formula [27].

[5] = system: healthy volunteers; experiment: Clinical adverse events (weekly diaries, blinded relatedness assessment), Phase I RCT; format: in vivo, human
Procedure: Adverse events (AEs) were recorded in weekly diaries provided to each volunteer. The relatedness of these AEs to the study drugs was assessed by two physicians (FM, CH) based on temporal association and biological plausibility using five categories: definitely not, unlikely, possibly, probably, and definitely related. The AEs reported in this manuscript include all AEs assessed as possibly, probably, or definitely related.
Quantitative data are presented as the mean ± standard deviation or as median and range, as appropriate. […] Due to a lack of normality, the nonparametric Mann-Whitney U test was used to compare independent samples; the Wilcoxon or Friedman test (whichever was appropriate) was used to compare repeated measures of the QTc interval. All statistical tests were two-sided with an α (significance level) of 0.05. Analyses were performed using the SPSS 11.0 statistical software (SPSS, Chicago, Illinois, United States). All analyses were based on allocation by intent-to-treat.

[6] = days 1-3, 1,750 mg AQ-13 / 1,500 mg CQ
[7] = 1,750 mg AQ-13, 1,500 mg CQ, mean ± SD
[8] = 600/700 mg AQ-13, 600 mg CQ, mean ± SD
[9] = 1,500 mg CQ (n = 15) / 1,750 mg AQ-13 (n = 14)
[10] = 100, 300 mg doses, n = 16 per drug
[11] = 600/700 mg, AQ-13 n = 25, CQ n = 24
[12] = all doses combined, 63 volunteers per drug

SMILES: CC(CCCN)Nc1ccnc2cc(Cl)ccc12 (centres unmarked) [BDCQ]
- second (di-dealkylated) metabolite/parent ratio in urine ([1]; days 1-3, AQ-73/AQ-13 and BDCQ/CQ): 2.6%
- detection of di-dealkylated metabolite in urine ([1]; urine collections days 1-3 after dosing): identified in urine collections
- detection of di-dealkylated metabolite in the blood ([2]; after oral AQ-13 or CQ): not detected in the blood

SMILES: CCN(CC)CCCC(C)Nc1ccnc2cc(Cl)ccc12 (centres unmarked) [CQ, chloroquine]
- amount of unchanged drug recovered from 24 hour urine collections [1, 6]: 829 µmol
- unchanged drug recovered from 24 hour urine collections, % of total oral dose [1, 6]: 18.0%
- CL renal ([1]; human, in vivo, po, 1500 mg): 100 mL/min
- blood level one hour after dosing as % of Cmax ([2]; 600 mg oral dose): 72%
- Cl/F ([2]; 1,500 mg oral over 3 d, median (range)): 9.5 L/h
- median oral clearance (range of medians across dose levels) ([2]; 600 and 1,500/1,750 mg doses): 9.5 to 11.3 L/h
- Cmax ([2]; in vivo, 1500 mg, 1,500 mg oral over 3 d (600+600+300 mg), whole blood, median (range), read-out: Cmax): 3400 nM
- Vd/F ([2]; in vivo, 1500 mg, 1,500 mg oral over 3 d, median (range)): 3720 L
- MRT ([2]; in vivo, 1500 mg, 1,500 mg oral over 3 d, median (range), read-out: MRT (converted)): 16 days
- Tmax ([2]; in vivo, 1500 mg, 1,500 mg oral over 3 d, median (range), read-out: Tmax): 1.1 days
- half-life ([2]; in vivo, 1500 mg, 1,500 mg oral over 3 d, median (range), read-out: t½ (converted)): 13.2 days
- AUC ([2]; in vivo, po, 600 mg, single oral 600 mg dose, whole blood, median (range), read-out: AUCw1 (partial AUC for week 1)): 90 µM·h
- AUC ([2]; in vivo, po, 600 mg, single oral 600 mg dose, whole blood, median (range), read-out: AUCτ (total area under the curve)): 241 µM·h
- AUC ([2]; in vivo, po, 1500 mg, 1,500 mg oral over 3 d, median (range), read-out: AUCw1): 312 µM·h
- AUC ([2]; in vivo, po, 1500 mg, 1,500 mg oral over 3 d, median (range), read-out: AUCτ): 636 µM·h
- Tmax ([2]; in vivo, 1,750 mg AQ-13 / 1,500 mg CQ, 27–28 h after the first dose, read-out: time of peak blood concentration after the second dose): 0.125 to 0.167 days
- half-life ([2]; in vivo, 600 and 1,500 mg oral doses, read-out: estimate of the terminal elimination t1/2 (across doses)): 14 to 24 days
- Cmax ([2]; in vivo, single oral 600 mg dose (CQ base equivalent), whole blood, median (range), read-out: Cmax): 1800 nM
- Vd/F ([2]; in vivo, single oral 600 mg dose, median (range)): 8670 L
- MRT ([2]; in vivo, single oral 600 mg dose, whole blood, median (range), read-out: MRT (converted)): 24.7 days
- Tmax ([2]; in vivo, single oral 600 mg dose, whole blood, median (range), read-out: Tmax): 0.125 days
- half-life ([2]; in vivo, single oral 600 mg dose, whole blood, median (range), read-out: t½ (terminal elimination half-life) (converted)): 23.3 days
- linearity of pharmacokinetics ([2]; oral doses in healthy volunteers): linear pharmacokinetics
- Cl/F (apparent oral clearance) ([2]; single oral 600 mg dose, median (range)): 11.3 (5.7–20.3) l/h
- hematologic or chemical toxicities on repeat laboratory testing ([3]; 4 d after drug administration): no hematologic or chemical toxicities
- organ toxicity ([3]; any dose tested, inpatient exams, 2 and 4 wk follow-up): No hematologic, hepatic, renal, or other organ toxicity was observed; also recorded: no clinical evidence for end-organ toxicity
- QTc interval of individual volunteers who developed QTc greater than 450 ms ([4]; 600 mg CQ, two females): 467 ms and 457 ms
- mean QTc prolongation after the first dose (day 1) ([4]; 1,500 mg CQ (first 600 mg dose) / 1,750 mg AQ-13 (first 700 mg dose)): 16 ms
- additional QTc increase after the second dose (day 2) ([4]; 1,500 mg CQ / 1,750 mg AQ-13): 12 ms
- QTc interval of individual volunteers who developed QTc > 450 ms ([4]; 1,500 mg CQ, 4 h after dosing on day 2, two females): 453 ms
- QTc interval, Baseline ([4]; 1,750 mg AQ-13 (n = 13), 1,500 mg CQ (n = 14), mean ± SD): 396 ± 21 ms
- QTc interval, 2 wk follow-up [4, 7]: 412 ± 13 ms
- QTc interval, 4–5 h post-dose (day 1) [4, 7]: 412 ± 22 ms
- QTc interval, 4–5 h post-dose (day 2) [4, 7]: 424 ± 19 ms and 424 ± 18 ms
- QTc interval, 4–5 h post-dose (day 3) [4, 7]: 417 ± 21 ms
- mean QTc prolongation, females ([4]; 1,750 mg AQ-13 / 1,500 mg CQ): 28 ms
- mean QTc prolongation, males ([4]; 1,750 mg AQ-13 / 1,500 mg CQ): 31 ms
- mean increase in the QTc interval from baseline ([4]; 1,750 mg AQ-13 / 1,500 mg CQ, 4 h after the second dose on day 2): 28 ms
- QTc interval, Baseline ([4]; 600/700 mg AQ-13 (n = 25), 600 mg CQ (n = 24), mean ± SD): 406 ± 19 ms
- QTc interval, 2 wk follow-up [4, 8]: 403 ± 15 ms
- QTc interval, 4–5 h post-dose (day 1) [4, 8]: 421 ± 20 ms
- maximal prolongation of the QTc interval from baseline at the individual level ([4]; 600/700 mg dose): 54 ms
- maximal prolongation of the QTc interval from baseline at the individual level ([4]; 1,500/1,750 mg dose): 63 ms
- mean increase in the QTc interval from baseline, females ([4]; 4 h after 600 mg CQ or 600/700 mg AQ-13): 22 ms
- mean QTc interval change from baseline, males ([4]; 4 h after 600 mg CQ or 600/700 mg AQ-13, not significant): 7 ms
- mean increase in the QTc interval from baseline ([4]; 4 h after 600 mg CQ or 600 or 700 mg AQ-13): 15 ms and 16 ms
- arrhythmias or other cardiac AEs ([4]; all doses): no arrhythmias or other cardiac AEs; also recorded: no cardiac AEs
- related adverse events: None ([5]; 10 mg dose, n = 8 per drug): 0
- Abdominal pain, number (%) [5, 9]: 0
- Blurred vision, number (%) [5, 9]: 2 (13%)
- Diarrhea, number (%) [5, 9]: 4 (27%)
- Difficulty focusing/visual floating objects, number (%) [5, 9]: 3 (20%)
- Lightheadedness/Dizziness, number (%) [5, 9]: 4 (27%)
- Loss of appetite, number (%) [5, 9]: 2 (13%)
- Nausea, number (%) [5, 9]: 5 (33%)
- Vomiting, number (%) [5, 9]: 2 (13%)
- Weakness/fatigue, number (%) [5, 9]: 0
- Headache, number (%) ([5]; 1,500 mg CQ (n = 15) / 1,750 mg AQ-13 (n = 14) over 3 d): 4 (27%)
- Headache, volunteers with related AE, number (%) [5, 10]: 1 (6%)
- Lightheadedness/Dizziness, number (%) [5, 10]: 1 (6%)
- Nausea, number (%) [5, 10]: 0
- Abdominal pain, number (%) [5, 11]: 0
- Diarrhea, number (%) [5, 11]: 2 (8%)
- Ear symptoms, number (%) [5, 11]: 2 (8%)
- Headache, number (%) [5, 11]: 5 (21%)
- Lightheadedness/Dizziness, number (%) [5, 11]: 3 (13%)
- Loss of appetite, number (%) [5, 11]: 3 (13%)
- Nausea, number (%) [5, 11]: 1 (4%)
- Vomiting, number (%) [5, 11]: 0
- drug-related GI symptoms, number of reports ([5]; all doses combined): 20 reports
- drug-related lightheadedness/dizziness, volunteers/total [5, 12]: 8/63
- volunteers reporting one or more GI symptoms/total [5, 12]: 13/63

SMILES: CCNCCCC(C)Nc1ccnc2cc(Cl)ccc12 (centres unmarked) [MDCQ, mono-desethylchloroquine]
- mono-dealkylated metabolite/parent ratio in urine ([1]; days 1-3, AQ-72/AQ-13 and MDCQ/CQ): 22.7%
- time after dosing at which metabolite/parent ratio reached 1.0 ([2]; 600 mg CQ, MDCQ/CQ ratio): 2–3 wk
- metabolite/parent ratio in blood at the Cmax of the parent drug ([2]; 600 mg dose, AQ-72/AQ-13 (mean) or MDCQ/CQ): 0.26
- time to appearance of metabolite in the blood ([2]; after oral 600 or 700 mg AQ-13 or 600 mg CQ): ≤ 1 h
- AUC ([2]; whole blood, oral, 1500 mg, after 1,500 mg CQ over 3 d, median (range), read-out: AUCτ of metabolite): 330 µM·h
- MRT ([2]; whole blood, oral, 1500 mg, after 1,500 mg CQ over 3 d, median (range), read-out: MRT of metabolite (converted)): 29 days
- half-life ([2]; whole blood, oral, 1500 mg, after 1,500 mg CQ over 3 d, median (range), read-out: t1/2 of metabolite (converted)): 21.8 days
- AUC ([2]; whole blood, po, 600 mg, after 600 mg oral dose of parent drug (CQ or AQ-13), whole blood, median (range), read-out: AUCτ of metabolite): 205 µM·h
- MRT ([2]; whole blood, after 600 mg oral dose of parent drug, median (range), read-out: MRT of metabolite (converted)): 44.8 days
- half-life ([2]; whole blood, after 600 mg oral dose of parent drug, median (range), read-out: t1/2 of metabolite (converted)): 31.2 days
- Cmax ([2]; whole blood, after 600 mg oral dose of parent drug, median, read-out: Cmax of metabolite): 540 nM
